Experimental data from patent publication US20200038348A1, “METHODS AND MATERIALS FOR REDUCING SCAR FORMATION DURING WOUND HEALING” (Mayo Foundation for Medical Education and Research, priority 2017, published 2020).
“Also recorded” adds a separate entry of the source.

Tests used:
WM858 Dual-Glo cells = assay: in vitro cell toxicity in the SPP1 screen; type: cell-based; conditions: in the SPP1 promoter screen
Source text: (§1) SPP1 is a pro-inflammatory inducer of skin fibrosis and skin aging. […] To screen for transcriptional silencers of SPP1 expression, cells with high endogenous SPP1 expression (e.g., melanoma cells) were identified. Then, the endogenous SPP1 promoter was tagged in melanoma cells with a dual luciferase reporter to create Dual-Glo cells using a genome editing approach. Firefly luciferase was introduced to assay SPP1 promoter activity; renilla luciferase was coupled to the CMV promoter as a loading control (FIG. 1A).

SPP1 promoter = assay: Dual-Glo luciferase reporter screen of SPP1 promoter activity (LOPAC library); type: cell-based
Source text: (A) Schematic representation of the DuoGlo construct used for high throughput compound screening. (B-C) SPP1 promoter activity after exposure of WM858 Dual-Glo cells to Vitamin D (B) or retinoid (C).
as §1

p16 = p16 expression staining in rabbit ear skin after topical treatment; type: in vivo; conditions: 2% topical pentamidine versus base only, four weeks, n=6 per group
Method: (§2) Female New Zealand white rabbit ears were used. In total, twelve linear wounds were created using minimally invasive vascular ligation in auricular blood vessels to create ischemic hypertrophic scars. Following surgical ligation, linear wounds were treated with either osteopontin inhibitor 2% topical pentamidine (n=6; left ear) or base only (n=6; right ear) for four weeks. After the treatment period, samples were fixed in 10% formaldehyde, embedded in paraffin and stained for p16 expression.

[1] = system: hypertrophic scar formation; assay: hypertrophic scar formation, ischemic rabbit ear model, topical treatment; type: in vivo
Method: Topical pentamidine was evaluated using a hypertrophic scar formation rabbit ear model. Briefly, surgical ligation of leporine auricular vessels induced an ischemic landscape for hypertrophic scar production. Specifically, a cranial artery and vein were ligated; the caudal artery and vein were preserved; and the central artery was ligated, while the central vein was preserved in the rabbit ear (FIG. 2).
All surgeries were conducted in a disinfected area designated for surgical procedures and equipped with necessary lighting and equipment. Briefly, rabbits received intramuscular buprenorphine and enrofloxicin (5-10 mg/kg) prior to the surgery. Anesthesia was induced by a mixture of ketamine and intramuscular xylazine and monitored by medical sciences support staff. Study staff performed surgeries using sterile instruments, drapes, gloves, and gown. Following vascular ligation, one linear full-thickness skin wound was created on the ventral side of each ear with a surgical blade. The skin and perichondrium were removed. The base on which granulation and epithelialization take place was the cartilage. The edges of the wound were closed with 4-0 Nylon sutures.
Following ischemic wounding, the relative ischemia created in the ear at time of surgery and time of sacrifice was assessed with a fluorescent light assisted angiography (Spy Elite, LifeCell). Perfusion of the ear was assessed using the Spy Elite system following intravenous administration of indocyanine green, which utilizes infrared light to detect the dye (FIG. 3).
Following vascular ligation and linear wounding, a sterile occlusive dressing (TegaDerm, 3M) was used to cover the wound site. Animals were allowed to recover for three days without wound disturbance. After 72 hours, the dressing was changed, and the treatment was initiated. […] Daily dressing changes occurred until day 28. About 1/8 teaspoon ([…]) of the treatment agent was applied with each dressing change. Rabbits were trained on the animal snuggler for ease during treatment application.
Animals were monitored daily for any signs of postoperative discomfort, wound infection, weight loss, loss of appetite, and loss of contracture fixation. Any complications such as cage sores, wound infections, weight loss, or wound dehiscence were reviewed with the veterinarian and managed in a way designed to minimize discomfort or suffering. […] Six rabbits were used in this study. For three rabbits, the left ear received Treatment Group 1 (n=3), and the right ear received Treatment Group 2 (n=3). […] One rabbit was excluded from the study due to wound infection:
as §2
Female New Zealand white rabbits ears were used. In total, twelve linear wounds were created using minimally invasive vascular ligation in auricular blood vessels to create ischemic hypertrophic scars. Following surgical ligation, linear wounds were treated with the following dose titration: 0.5% pentamidine (n=3); 1% pentamidine (n=3); 2% pentamidine (n=3); or 5% pentamidine (n=3). […]

[2] = cited from earlier work

N=C(N)c1ccc(OCCCCCOc2ccc(C(=N)N)cc2)cc1 [pentamidine, 4,4′-[pentane-1,5-diylbis(oxy)]dibenzenecarboximidamide]
in vitro cell toxicity (WM858 Dual-Glo cells): minimal in vitro cell toxicity
inhibition of SPP1 promoter activity (SPP1 promoter; Dual-Glo melanoma cells, firefly luciferase at the SPP1 promoter, renilla/CMV as loading control): greater than 80%
p16 expression levels in dermal and epidermal regions (p16): decreased p16 levels; also recorded: reduced p16 expression levels
hypertrophic scar formation ([1]; 0.5% pentamidine, n=3): no response to minimal reduction
hypertrophic scar formation ([1]; 1% pentamidine, n=3): no response to minimal reduction
hypertrophic scar formation ([1]; 2% pentamidine in Pracasil-Plus base, daily, four weeks): Minimal hypertrophic scaring; also recorded: significantly inhibited hypertrophic scar formation; also recorded: observable scar reduction
re-epithelization of the wound ([1]; 2% pentamidine, n=3): Effective re-epithelization
wound outcome at high dose ([1]; 5% pentamidine, n=3): non-healing wound and abscess formation

N=C(N)c1ccc(OCCCCCOc2ccc(C(=N)N)cc2)cc1 [Pentamidine isethionate, 4,4-[1,5-pentanediylbis(oxy)]bis-benzenecarboximidamid]
solubility in acetone ([2]; acetone): insoluble
solubility in alcohol ([2]; alcohol): soluble
solubility in chloroform ([2]; chloroform): insoluble
solubility in ether ([2]; ether): insoluble
solubility in glycerin ([2]; glycerin): soluble
solubility in water ([2]; water): soluble

Vitamin D
effect on SPP1 promoter activity (SPP1 promoter; WM858 Dual-Glo cells): activated
